In patent US4962113A, “Pyridinium derivatives, their production and use” (Takeda Chemical Industries, Ltd, priority 1987, dated 1990):
Read-outs that look alike come from different tables or passages of the source.

Columns and labels:
[1] = tested on: platelet aggregation (PAF); assay: Inhibitory action on PAF-induced rabbit platelet aggregation; format: cell-based; settings: Oryctolagus cuniculus, read-out: inhibitory percentage (platelet aggregation); for inhibition at 3 µM: 3 × 10^-6 M; for inhibition at 0.3 µM: 3 × 10^-7 M; for inhibition at 0.03 µM: 3 × 10^-8 M
Experimental: Blood was collected directly from the hearts of male rabbits using a syringe containing, as an anticoagulant, 3.15% citric acid (one part to 9 parts of blood). The blood was subjected to centrifuge at 800 rpm for ten minutes at room temperature to obtain platelet rich plasma (PRP). The remaining blood was further subjected to centrifuge at 3000 rpm for ten minnutes to separate platelet poor plasma (PPP) as the supernatant. PRP was diluted with PPP, and the number of platelets was adjusted to about 500,000/ μl. This PRP(250 μl) was stirred for two minutes at 37° C., and there was added a test sample, and the mixture was stirred for further two minutes, followed by addition of PAF of a given concentration. Platelet aggregation was examined by means of a platelet-agglutometer (manufactured by Rika Denki). Platelet aggregation preventing action of the test sample was determined based on the maximum percent light transmission (maximum percent. agglutination).

[2] = tested on: PAF-induced hypotension; assay: Inhibitory action on PAF-induced hypotension in rats; format: in vivo, rat (Sprague-Dawley); settings: Rattus norvegicus, read-out: Inhibitory Rate (Lowering of Blood Pressure); for inhibition in vivo at 0.01 mg/kg / inhibition in vivo at 0.03 mg/kg / inhibition in vivo at 0.1 mg/kg: iv; for inhibition in vivo at 1 mg/kg / inhibition in vivo at 3 mg/kg / inhibition in vivo at 10 mg/kg / inhibition in vivo at 30 mg/kg: oral
Experimental: Sprague-Dawley male rats, each weighing about 250 g, were subjected to the experiment. The rats were cannulated on the side of femoral artery for measuring the blood pressure, and on the side of femoral vein for administering the drug. The blood pressure was measured through a pressure transducer and recorded. First, PAF (1 μg/kg) was administered intravenously (i.v.) to examine the extent of lowering of blood pressure. Then, the test samples were administered intravenously or orally. […]
The inhibitory action on PAF-induced hypotension (% inhibition) is indicated as the ratio of blood pressure-lowering degree (Δ mmHg) induced by PAF after administration of test samples relative to blood pressure-lowering degree (Δ mmHg) induced by PAF before administration of test samples.

[3] = Acute Toxicity Test; format: in vivo; settings: oral, 1000 mg/kg, until after one week
Experimental: Male Jcl-ICR mice (5 wk) were used in groups of five individuals. The animals of the respective groups were orally administered with the compounds (227), (236) and (303) respectively produced in Production Examples 87, 90 and 109 at the dose of 1000 mg/kg.

## CCC[n+]1cc(Br)cc(C(=O)N(CCC(=O)NCCOC(=O)Nc2cccc3ccccc23)c2ccccc2)c1 [Production Example 90, 5-bromo-3-[N-[2-[2-(1-naphthylcarbamoyloxy)ethyl]carbamoyl]ethyl-N-phenyl]carbamoyl-1-propylpyridinium chloride]
[1]
  inhibition at 3 µM: 100%
  inhibition at 0.3 µM: 100%
  inhibition at 0.03 µM: 16%
[2]; 1 hr.
  inhibition in vivo at 0.01 mg/kg: 58%
  inhibition in vivo at 0.03 mg/kg: 83%
  inhibition in vivo at 1 mg/kg: 69%
  inhibition in vivo at 3 mg/kg: 96%
[2]; 2 hr.
  inhibition in vivo at 0.01 mg/kg: 36%
  inhibition in vivo at 0.03 mg/kg: 64%
  inhibition in vivo at 1 mg/kg: 68%
  inhibition in vivo at 3 mg/kg: 99%
[2]; 4 hr.
  inhibition in vivo at 0.01 mg/kg: 17%
  inhibition in vivo at 0.03 mg/kg: 51%
  inhibition in vivo at 1 mg/kg: 78%
  inhibition in vivo at 3 mg/kg: 94%
[2]; 6 hr.
  inhibition in vivo at 0.01 mg/kg: 10%
  inhibition in vivo at 0.03 mg/kg: 36%
  inhibition in vivo at 1 mg/kg: 71%
  inhibition in vivo at 3 mg/kg: 87%
[2]; 8 hr.
  inhibition in vivo at 0.01 mg/kg: 1%
  inhibition in vivo at 0.03 mg/kg: 23%
  inhibition in vivo at 1 mg/kg: 60%
  inhibition in vivo at 3 mg/kg: 81%
[2]; 5 min, i.v., 5 min.
  inhibition in vivo at 0.01 mg/kg: 69%
  inhibition in vivo at 0.03 mg/kg: 100%
[3]
  death of mice: No death of mice was observed

## CCC[n+]1cc(Br)cc(C(=O)N(CCOC(=O)NCCOC(=O)N2CCc3ccccc3C2)c2ccccc2)c1 [Production Example 77, 5-Bromo-3-[N-[2-[[2-(1,2,3,4-tetrahydroisoquinolyl)carbonyloxy]ethyl]carbamoyloxy]ethyl-N-phenyl]carbamoyl-1-propylpyridinium chloride]
[1]
  inhibition at 3 µM: 100%
  inhibition at 0.3 µM: 100%
  inhibition at 0.03 µM: 51%
[2]; 1 hr.
  inhibition in vivo at 0.03 mg/kg: 100%
  inhibition in vivo at 1 mg/kg: 56%
  inhibition in vivo at 3 mg/kg: 89%
[2]; 2 hr.
  inhibition in vivo at 0.03 mg/kg: 97%
  inhibition in vivo at 1 mg/kg: 64%
  inhibition in vivo at 3 mg/kg: 100%
[2]; 4 hr.
  inhibition in vivo at 0.03 mg/kg: 62%
  inhibition in vivo at 1 mg/kg: 72%
  inhibition in vivo at 3 mg/kg: 99%
[2]; 6 hr.
  inhibition in vivo at 0.03 mg/kg: 46%
  inhibition in vivo at 1 mg/kg: 66%
  inhibition in vivo at 3 mg/kg: 99%
[2]; 8 hr.
  inhibition in vivo at 0.03 mg/kg: 33%
  inhibition in vivo at 1 mg/kg: 59%
  inhibition in vivo at 3 mg/kg: 97%
[2]; 5 min, i.v., 5 min.
  inhibition in vivo at 0.03 mg/kg: 100%

## CCC[n+]1cc(Br)cc(C(=O)N(CCC(=O)NCCNC(=O)c2cccc3ccccc23)c2ccccc2)c1 [Production Example 108, 5-Bromo-3-[N-[2-[2-(1-naphthoylamino)ethyl]carbamoyl]ethyl-N-phenyl]carbamoyl-1-propylpyridinium chloride]
[1]
  inhibition at 3 µM: 100%
  inhibition at 0.3 µM: 37%
  inhibition at 0.03 µM: 5%
[2]; 1 hr.
  inhibition in vivo at 0.1 mg/kg: 100%
  inhibition in vivo at 1 mg/kg: 64%
  inhibition in vivo at 3 mg/kg: 92%
[2]; 2 hr.
  inhibition in vivo at 0.1 mg/kg: 97%
  inhibition in vivo at 1 mg/kg: 61%
  inhibition in vivo at 3 mg/kg: 86%
[2]; 4 hr.
  inhibition in vivo at 0.1 mg/kg: 75%
  inhibition in vivo at 1 mg/kg: 55%
  inhibition in vivo at 3 mg/kg: 94%
[2]; 6 hr.
  inhibition in vivo at 0.1 mg/kg: 58%
  inhibition in vivo at 1 mg/kg: 51%
  inhibition in vivo at 3 mg/kg: 94%
[2]; 8 hr.
  inhibition in vivo at 0.1 mg/kg: 45%
  inhibition in vivo at 1 mg/kg: 42%
  inhibition in vivo at 3 mg/kg: 72%
[2]; 5 min, i.v., 5 min.
  inhibition in vivo at 0.1 mg/kg: 100%

## CCC[n+]1cc(Br)cc(C(=O)N(CCC(=O)NCCNS(=O)(=O)c2ccc3ccccc3c2)c2ccccc2)c1 [Production Example 98, 5-Bromo-3-[N-[2-[2-(2-naphthylsulfonamidoethyl]carbamoyl]ethyl-N-phenyl]carbamoyl-1-propylpyridinium chloride]
[1]
  inhibition at 3 µM: 100%
  inhibition at 0.3 µM: 100%
  inhibition at 0.03 µM: 16%
[2]; 1 hr.
  inhibition in vivo at 1 mg/kg: 70%
  inhibition in vivo at 3 mg/kg: 87%
[2]; 2 hr.
  inhibition in vivo at 1 mg/kg: 74%
  inhibition in vivo at 3 mg/kg: 91%
[2]; 4 hr.
  inhibition in vivo at 1 mg/kg: 74%
  inhibition in vivo at 3 mg/kg: 93%
[2]; 6 hr.
  inhibition in vivo at 1 mg/kg: 70%
  inhibition in vivo at 3 mg/kg: 93%
[2]; 8 hr.
  inhibition in vivo at 1 mg/kg: 69%
  inhibition in vivo at 3 mg/kg: 89%

## CCC[n+]1cc(Br)cc(C(=O)N(CCOC(=O)NCCOc2cccc3ccccc23)c2ccccc2)c1 [Production Example 7, 5-bromo-3-[N-[2-[2-(1-naphthyloxy)ethyl]carbamoyloxy]ethyl-N-phenyl]carbamoyl-1-propylpyridinium iodide]
[1]
  inhibition at 3 µM: 100%
  inhibition at 0.3 µM: 100%
  inhibition at 0.03 µM: 18%
[2]; 1 hr.
  inhibition in vivo at 0.01 mg/kg: 59%
  inhibition in vivo at 0.03 mg/kg: 84%
  inhibition in vivo at 0.1 mg/kg: 100%
  inhibition in vivo at 3 mg/kg: 36%
  inhibition in vivo at 10 mg/kg: 100%
  inhibition in vivo at 30 mg/kg: 100%
[2]; 2 hr.
  inhibition in vivo at 0.01 mg/kg: 48%
  inhibition in vivo at 0.03 mg/kg: 81%
  inhibition in vivo at 0.1 mg/kg: 91%
  inhibition in vivo at 3 mg/kg: 59%
  inhibition in vivo at 10 mg/kg: 97%
  inhibition in vivo at 30 mg/kg: 100%
[2]; 4 hr.
  inhibition in vivo at 0.01 mg/kg: 45%
  inhibition in vivo at 0.03 mg/kg: 68%
  inhibition in vivo at 0.1 mg/kg: 76%
  inhibition in vivo at 3 mg/kg: 63%
  inhibition in vivo at 10 mg/kg: 92%
  inhibition in vivo at 30 mg/kg: 97%
[2]; 6 hr.
  inhibition in vivo at 0.01 mg/kg: 40%
  inhibition in vivo at 0.03 mg/kg: 57%
  inhibition in vivo at 0.1 mg/kg: 63%
  inhibition in vivo at 3 mg/kg: 59%
  inhibition in vivo at 10 mg/kg: 84%
  inhibition in vivo at 30 mg/kg: 89%
[2]; 8 hr.
  inhibition in vivo at 0.01 mg/kg: 35%
  inhibition in vivo at 0.03 mg/kg: 51%
  inhibition in vivo at 0.1 mg/kg: 58%
  inhibition in vivo at 3 mg/kg: 41%
  inhibition in vivo at 10 mg/kg: 78%
  inhibition in vivo at 30 mg/kg: 86%
[2]; 5 min, i.v., 5 min.
  inhibition in vivo at 0.01 mg/kg: 76%
  inhibition in vivo at 0.03 mg/kg: 100%
  inhibition in vivo at 0.1 mg/kg: 100%
